Source: patent publication US7442683B2, “Cyclic peptide” (Takara Bio Inc., priority 2001, dated 2008)
Like-named read-outs stand apart in the source and are kept apart here.

Key:
Type in all cases: cell-based
[1] = tested on: Candida albicans TIMM0136
Description: (§1) The antifungal activities of the compounds synthesized in Examples 1 and 3 to 7 were measured by a liquid medium dilution method. Candida albicans TIMM0136, Cryptococcus neoformans TIMM0354 or Aspergillus fumigatus TIMM1776 was inoculated into a medium containing one of the compounds diluted serially, and cultured at 30° C. for two days. […] For the measurements, a medium containing 0.67% Yeast Nitrogen Base (Difco) and 1.0% glucose (YNBG medium) was used for the cultures of Candida albicans and Cryptococcus neoformans, and a medium containing 0.5% Brain Heart Infusion Bouillon (Nissui) (BHI medium) was used for the culture of Aspergillus fumigatus.

[2] = tested on: Cryptococcus neoformans TIMM0354
Description: as §1

[3] = tested on: Aspergillus fumigatus TIMM1776
Description: as §1

SMILES | MIC (μg/ml) C.a. [1] | MIC (μg/ml) C.n. [2] | MIC (μg/ml) A.f. ([3]; TIMM1776) | MIC (μg/ml) A.f. ([3]; Aspergillus fumigatus TIMM1776, BHI medium, 30° C., two days, growth almost completely inhibited)
CCCCCCCCCCCCCC1CC(=O)N[C@@H](C)C(=O)N[C@@H](CCCN)C(=O)NCCC(=O)N[C@@H](CO)C(=O)N[C@@H](CO)C(=O)N[C@H](CC(N)=O)C(=O)N[C@H]([C@H](C)O)C(=O)NCC(=O)O1 (stereo partly drawn) [AA^7:D-Thr-substituted analog] | > 200 µg/mL | > 200 µg/mL | > 200 µg/mL | 
CCCCCCCCCCCCCC1CC(=O)N[C@@H](C)C(=O)N[C@@H](CCCN)C(=O)NCCC(=O)N[C@@H](CO)C(=O)N[C@@H](CO)C(=O)N[C@H](CC(N)=O)C(=O)N[C@H]([C@@H](C)O)C(=O)NCC(=O)O1 (mixture of isomers) [Compound 1, cyclo(-L-Ala-L-Orn-β-Ala-L-Ser-L-Ser-D-Asn-D-allo-Thr-Gly-(±) -Hhd-)] |  |  |  | 1.56 µg/mL
CCCCCCCCCCCCCC1CC(=O)N[C@@H](C)C(=O)N[C@@H](CCCN)C(=O)NCCC(=O)N[C@@H](CO)C(=O)N[C@@H](CO)C(=O)N[C@H](CC(N)=O)C(=O)N[C@@H]([C@@H](C)O)C(=O)NCC(=O)O1 (stereo partly drawn) [AA^7:L-Thr-substituted analog] | > 200 µg/mL | > 200 µg/mL | > 200 µg/mL | 

Now from value to compound:

MIC (μg/ml) C.a. [1] | MIC (μg/ml) C.n. [2] | MIC (μg/ml) A.f. ([3]; TIMM1776) | MIC (μg/ml) A.f. ([3]; Aspergillus fumigatus TIMM1776, BHI medium, 30° C., two days, growth almost completely inhibited) | SMILES
3.12 µg/mL | 6.25 µg/mL | 0.39 µg/mL |  | CCCCCCCCCCCCCC1CC(=O)N[C@@H](C)C(=O)N[C@@H](CCCN)C(=O)N[C@@H](CCC(=O)O)C(=O)N[C@@H](CO)C(=O)N[C@@H](CO)C(=O)N[C@H](CC(N)=O)C(=O)N[C@H]([C@@H](C)O)C(=O)NCC(=O)O1 (mixture of isomers) [Compound 5, cyclo(-L-Ala-L-Orn-L-Glu-L-Ser-L-Ser-D-Asn-D-allo-Thr-Gly-(±)-Hhd-)]
6.25 µg/mL | 3.12 µg/mL | 0.78 µg/mL |  | CCCCCCCCCCCCCC1CC(=O)N[C@@H](C)C(=O)N[C@@H](CCCN)C(=O)N[C@@H](CO)C(=O)N[C@@H](CO)C(=O)N[C@@H](CO)C(=O)N[C@H](CC(N)=O)C(=O)N[C@H]([C@@H](C)O)C(=O)NCC(=O)O1 (mixture of isomers) [Compound 7, cyclo(-L-Ala-L-Orn-L-Ser-L-Ser-L-Ser-D-Asn-D-allo-Thr-Gly-(±)-Hhd-)]
6.25 µg/mL | 6.25 µg/mL |  |  | CCCCCCCCCCCCCC1CC(=O)N[C@@H](C)C(=O)N[C@@H](CCCN)C(=O)N[C@@H](CC(=O)O)C(=O)N[C@@H](CO)C(=O)N[C@@H](CO)C(=O)N[C@H](CC(N)=O)C(=O)N[C@H]([C@@H](C)O)C(=O)NCC(=O)O1 (mixture of isomers) [Compound 4, cyclo(-L-Ala-L-Orn-L-Asp-L-Ser-L-Ser-D-Asn-D-allo-Thr-Gly-(±)-Hhd-)]
6.25 µg/mL | 3.12 µg/mL | 1.56 µg/mL |  | CCCCCCCCCCCCCC1CC(=O)N[C@@H](C)C(=O)N[C@@H](CCCN)C(=O)N[C@@H](CC(N)=O)C(=O)N[C@@H](CO)C(=O)N[C@@H](CO)C(=O)N[C@H](CC(N)=O)C(=O)N[C@H]([C@@H](C)O)C(=O)NCC(=O)O1 (mixture of isomers) [Compound 3, cyclo(-L-Ala-L-Orn-L-Asn-L-Ser-L-Ser-D-Asn-D-allo-Thr-Gly-(±)-Hhd-)]
12.5 µg/mL | 3.12 µg/mL |  |  | CCCCCCCCCCCCCC1CC(=O)N[C@@H](C)C(=O)N[C@@H](CCCN)C(=O)NCC(=O)N[C@@H](CO)C(=O)N[C@@H](CO)C(=O)N[C@H](CC(N)=O)C(=O)N[C@H]([C@@H](C)O)C(=O)NCC(=O)O1 (mixture of isomers) [Compound 6, cyclo(-L-Ala-L-Orn-Gly-L-Ser-L-Ser-D-Asn-D-allo-Thr-Gly-(±)-Hhd-)]
